The text below walks through data of patent publication US9315806B2, “Massively parallel combinatorial genetics” (Massachusetts Institute of Technology, priority 2012, dated 2016).

For series [1], the system named is E. coli NDM-1 strain. In words: microbe, parasite or virus in culture. It counts as cell-based. Particulars: for NDM-1 MICs, Tested: for piperacillin-tazobactam the piperacillin concentration; for MIC: Escherichia coli, NDM1STRAIN, read-out: NDM-1 MICs, Tested.
Series [2] relates to Klebsiella pneumoniae NDM-1 clinical isolate. Particulars: original Klebsiella pneumoniae NDM-1 isolate; cited from earlier work.
The test system of series [3] is Tet-ON expression system (rtTA). The experiment in a line: Tet-ON induction tested with fluorescent proteins (eGFP, mCherry). The format is cell-based. As to conditions: yeast strains with integrated rtTA. The source says: (§1) The repetitive Aβ or αSyn expression array was integrated in yeast genome (the W303 background) and controlled by galactose induction. FIG. 28 depicts a yeast strain generated by integrating multiple tandem copies of αSyn with a galactose (Gal)-inducible promoter. In order to minimize the size of plasmid backbone for library construction, the reverse tetracycline transactivator (rtTA), part of the Tet-ON expression system (Gossen, M. et al., Science […]:1766-9 (1995)), was integrated into both yeast strains. The Tet-ON induction was tested by using different fluorescent proteins (such as eGFP and mCherry), and consistently detected robust gene activation (about 50-fold increase) with doxycycline (Dox) treatment. […] Similarly, the rtTA was successfully integrated in wild-type strain (the BY4741 background) to study longevity.

Series [4] has as its system yeast strains (Aβ or αSyn expression array, W303 background). The experiment in a line: Cell growth and inducible amyloid toxicity of yeast model strains. The format is cell-based. As to conditions: yeast strains with integrated rtTA.
Excerpt: as §1

Series [5] relates to aTc-inducible pLtetO promoters. In words: aTc induction of GFP/mCherry pairwise combinations. As to conditions: DH5a colonies, increasing concentrations of aTc. The format is cell-based, E. coli. The source says: Next, to test gene expression, a barcoded vector library of GFP and mCherry was constructed under the control of aTc-inducible pLtetO promoters with a T1+T7 fusion terminator downstream of each ORF. Each vector contained the high-copy ColE1 origin, tetR under control of a constitutive promoter, and cat conferring chloramphenicol resistance.
An insert library was generated via PCR, creating a pairwise combinatorial set as in FIG. 5 that was then transformed into DH5a cells. Twenty-four colonies were isolated and grown in increasing concentrations of aTc along with positive and negative controls (FIG. 7).

Turning to Colistin, in series [1] (E. coli NDM-1), the “NDM-1 MICs, Tested” value is below 0.125 µg/mL. The “NDM-1 MICs, Previously Reported” value in series [2] is 0.25 µg/mL.

With Gentamicin, the “NDM-1 MICs, Tested” value in series [1] (E. coli NDM-1) was above 256 µg/mL. Also, in series [2], the “NDM-1 MICs, Previously Reported” value is above 10 µg/mL.

Turning to `C[C@@H](O)[C@H]1C(=O)N2C(C(=O)O)=C(SCCN=CN)C[C@H]12` [Imipenem], the MIC in series [1] is above 32 µg/mL.

In the case of `C[C@H]1c2cccc(O)c2C(=O)C2=C(O)[C@]3(O)C(=O)C(C(N)=O)=C(O)[C@@H](N(C)C)[C@@H]3[C@@H](O)[C@@H]21` [doxycycline], in series [3], the “Gene activation (Tet-ON induction)” value was “about 50 fold”. In addition, in series [4], the “Effect on cell growth or inducible amyloid toxicity” value is “neither the integrated rtTA nor the Dox treatment affects cell growth or the inducible amyloid toxicity”.

For `CO/N=C(\C(=O)N[C@@H]1C(=O)N2C(C(=O)O)=C(CSc3nc(=O)c(=O)[nH]n3C)CS[C@H]12)c1csc(N)n1` [Ceftriaxone], the MIC in series [1] is above 128 µg/mL. For the same compound, the “NDM-1 MICs, Previously Reported” value in series [2] is above 32 µg/mL. With `CC1(C)S[C@@H]2[C@H](NC(=O)[C@H](N)c3ccc(O)cc3)C(=O)N2[C@H]1C(=O)O` [Amoxicillin], in series [1], the MIC was above 512 µg/mL. Piperacillin-Tazobactam: the “NDM-1 MICs, Tested” value in series [1] (E. coli NDM-1) was above 256 µg/mL. Further, the “NDM-1 MICs, Tested, tazobactam concentration” value in series [1] (E. coli NDM-1, tazobactam part of piperacillin-tazobactam) is 32 µg/mL. Moreover, the “NDM-1 MICs, Previously Reported” value in series [2] is above 128 µg/mL.

Take `Cc1c2c(c(O)c3c(O)cccc13)C(=O)[C@]1(O)C(O)=C(C(N)=O)C(=O)[C@@H](N(C)C)[C@@H]1C2` [aTc]: the “on/off ratios of induction” value in series [5] is reported as 150-300 x.
